Test results from patent US20250270215A1, “IMIDAZOLE DERIVATIVES AS ALK5 INHIBITORS” (CHIESI FARMACEUTICI S.P.A., priority 2022, published 2025).

Molecular target: human ALK5 (Homo sapiens (Human), UniProt P36897)
Assay: ADP-GLO Kinases assay (ALK5 enzymatic activity)
Format: biochemical
Conditions: purified recombinant human ALK5 2.6 nM, TGFβ1 peptide substrate, 25° C., 150 min incubation, ADP-Glo detection
Protocol: The enzymatic activity of compounds of the present invention was monitored measuring the formation of ADP using the ADP-GLO Kinases assay. Following the incubation of the purified enzyme, a substrate and ATP, the produced ADP was converted into ATP, which in turn was converted into light by Ultra-Glo Luciferase. The luminescent signal positively correlated with ADP amount and kinase activity. Briefly, the kinase reaction was performed by incubating 2.6 nM of the purified, commercially available human ALK5 (recombinant TGF β1 N-term GST-tagged, 80-end), a final concentration of TGFβ1 peptide 94.5 μM (Promega, T36-58) and ultra-pure ATP (Promega V915B). The ATP concentration was set at the Km value (concentration of substrate which permits the enzyme to achieve half maximal velocity (Vmax)) of ALK5 (5 μM). All reactions/incubations were performed at 25° C. Compound and ALK5 kinase were mixed and incubated for 15 mins. Reactions were initiated by addition of ATP at a final concentration in the assay of 0.83 μM. After an incubation of 150 min, the reaction was stopped, and ADP production detected with ADP-Glo kit according to manufacturer's indications. The assay was performed in 384-well format and was validated using a selection of reference compounds that was tested in 11 point concentration-response curve.

Chain of human ALK5 (P36897 80-503 limits assumed): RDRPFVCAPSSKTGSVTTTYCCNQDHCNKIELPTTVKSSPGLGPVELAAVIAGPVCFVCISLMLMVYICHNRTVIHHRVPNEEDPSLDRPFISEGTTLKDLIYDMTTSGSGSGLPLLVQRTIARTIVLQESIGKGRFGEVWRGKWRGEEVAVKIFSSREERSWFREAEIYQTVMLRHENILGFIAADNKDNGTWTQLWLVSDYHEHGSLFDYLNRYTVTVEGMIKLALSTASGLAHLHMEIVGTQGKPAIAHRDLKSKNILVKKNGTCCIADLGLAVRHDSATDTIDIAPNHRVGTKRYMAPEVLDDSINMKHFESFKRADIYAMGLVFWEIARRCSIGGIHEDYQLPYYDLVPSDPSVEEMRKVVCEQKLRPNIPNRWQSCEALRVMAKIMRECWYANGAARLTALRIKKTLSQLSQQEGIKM

Row | SMILES | IC50 [nM]
1 | CCN1CCn2c1nc(-c1cccc(C)n1)c2-c1cc2cnccc2s1 [Example 42, 2-(1-Ethyl-5-{thieno[3,2-c]pyridin-2-yl}-1H,2H,3H-imidazo[1,2-a] [1,3]diazol-6-yl)-6-methylpyridine] | 1 to 5
2 | CCN1CCn2c1nc(-c1cccc(C)n1)c2-c1ccc2ncsc2c1 [Example 33, 6-[1-Ethyl-6-(6-methylpyridin-2-yl)-1H,2H,3H-imidazo[1,2-a][1,3]diazol-5-yl]-1,3-benzothiazole] | < 1
3 | Cc1cccc(-c2nc3n(c2-c2cccc4ncsc24)CCN3)n1 [Example 15] | 5 to 10
4 | CCOC(=O)CC1Cn2c(nc(-c3cccc(C)n3)c2-c2cc3cnccc3s2)N1 (stereo not shown) [Example 20, Ethyl 2-[6-(6-methylpyridin-2-yl)-5-{thieno[3,2-c]pyridin-2-yl}-1H,2H,3H-imidazo[1,2-a][1,3]diazol-2-yl] acetate] | 1 to 5
5 | Cc1cccc(-c2nc3n(c2-c2ccc4nnsc4c2)CCN3)n1 [Example 31, 6-(6-(6-Methylpyridin-2-yl)-2,3-dihydro-1H-imidazo[1,2-a]imidazol-5-yl)benzo[d][1,2,3] thiadiazole] | < 1
6 | Cc1csc(-c2nc3n(c2-c2cc4cnccc4s2)CCN3)n1 [Example 7, 2-(6-(4-Methylthiazol-2-yl)-2,3-dihydro-1H-imidazo[1,2-a]imidazol-5-yl)thieno[3,2-c]pyridine] | < 1
7 | Cc1cccc(-c2nc3n(c2-c2ccnc4[nH]ccc24)CCN3)n1 [Example 35, 4-(6-(6-Methylpyridin-2-yl)-2,3-dihydro-1H-imidazo[1,2-a]imidazol-5-yl)-1H-pyrrolo[2,3-b]pyridine] | 1 to 5
8 | Cc1cccc(-c2nc3n(c2-c2ccc(O)cc2)CCN3)n1 [Example 55, 4-[6-(6-Methylpyridin-2-yl)-1H,2H,3H-imidazo[1,2-a][1,3]diazol-5-yl]phenol] | 1 to 5
9 | Cc1cccc(-c2nc3n(c2-c2ccnc(N)c2)CCN3)n1 [Example 56, 4-[6-(6-Methylpyridin-2-yl)-1H,2H,3H-imidazo[1,2-a][1,3]diazol-5-yl]pyridin-2-amine] | 5 to 10
10 | Cc1cccc(-c2nc3n(c2-c2ccc4nc(N)sc4c2)CCN3)n1 [Example 48, 6-(6-(6-Methylpyridin-2-yl)-2,3-dihydro-1H-imidazo[1,2-a]imidazol-5-yl)benzo[d] thiazol-2-amine] | 1 to 5
11 | CCN1CCn2c1nc(-c1cccc(C)n1)c2-c1ccc2ncnn2c1 [Example 22, 6-(1-Ethyl-6-(6-methylpyridin-2-yl)-2,3-dihydro-1H-imidazo[1,2-a]imidazol-5-yl)-[1,2,4]triazolo[1,5-a]pyridine] | < 1
12 | COc1cccc(-c2nc3n(c2-c2ccc4ncsc4c2)CCN3)n1 [Example 57, 6-[6-(6-Methoxypyridin-2-yl)-1H,2H,3H-imidazo[1,2-a][1,3]diazol-5-yl]-1,3-benzothiazole] | < 1
13 | Cc1cccc(-c2nc3n(c2-c2ccc4snnc4c2)CCN3)n1 [Example 30, 5-(6-(6-Methylpyridin-2-yl)-2,3-dihydro-1H-imidazo[1,2-a]imidazol-5-yl)benzo[d][1,2,3] thiadiazole] | 1 to 5
14 | Cc1cccc(-c2nc3n(c2-c2ccc(F)c(N)c2)CCN3)n1 [Example 43, 2-Fluoro-5-(6-(6-methylpyridin-2-yl)-2,3-dihydro-1H-imidazo[1,2-a]imidazol-5-yl) aniline] | 1 to 5
15 | Cc1cccc(-c2nc3n(c2-c2cc4cnccc4s2)CC(C(=O)N(C)C)N3)n1 (stereo not shown) [Example 29, N,N-Dimethyl-6-(6-methylpyridin-2-yl)-5-{thieno[3,2-c]pyridin-2-yl}-1H,2H,3H-imidazo[1,2-a][1,3]diazole-2-carboxamide] | 1 to 5
16 | Cc1cccc(-c2nc3n(c2-c2cc4cnccc4s2)CC(CC(=O)O)N3)n1 (stereo not shown) [Example 21, 2-[6-(6-Methylpyridin-2-yl)-5-{thieno[3,2-c]pyridin-2-yl}-1H,2H,3H-imidazo[1,2-a][1,3]diazol-2-yl]acetic acid] | 1 to 5
17 | CCOC(=O)C1Cn2c(nc(-c3cccc(C)n3)c2-c2ccc3ncnn3c2)N1 (stereo not shown) [Example 26, Ethyl 6-(6-methylpyridin-2-yl)-5-{[1,2,4]triazolo[1,5-a]pyridin-6-yl}-1H,2H,3H-imidazo[1,2-a][1,3]diazole-2-carboxylate] | 1 to 5
18 | Cn1ccc(-c2nc3n(c2-c2cc4cnccc4s2)CCN3)n1 [Example 9, 2-(6-(1-Methyl-1H-pyrazol-3-yl)-2,3-dihydro-1H-imidazo[1,2-a]imidazol-5-yl)thieno[3,2-c]pyridine] | 1 to 5
19 | Cn1ccc(-c2nc3n(c2-c2ccc4ncnn4c2)CCN3)n1 [Example 8, 6-(6-(1-Methyl-1H-pyrazol-3-yl)-2,3-dihydro-1H-imidazo[1,2-a]imidazol-5-yl)-[1,2,4]triazolo[1,5-a]pyridine] | 5 to 10
